According to US9133199B2, “Pyrimidine derivatives as protein kinase inhibitors” (Cyclacel Limited, priority 2007, dated 2015):

Key:
AA (aurora kinase A) = AA (aurora kinase A) (Homo sapiens (Human), UniProt O14965); experiment: AA kinase inhibition (Table 1); type: biochemical; conditions: Table 2; read-out: AurA IC50
A2780/ADR cells = experiment: Cell viability assay (Alamar Blue, 72 hours), MDR line; type: cell-based, human; conditions: paired parental and MDR tumour cell lines (A2780-A2780/ADR, MES-SA-MES-SA/Dx5)
Source text: In vitro cell viability assays have been used to measure the effect of drug accumulation in paired parental and drug resistant tumour cell lines. The pairs used are the human ovarian carcinoma A2780 line with its MDR counterpart A2780/ADR and the human uterine sarcoma MES-SA line with its MDR counterpart MES-SA/Dx5 [Wesolowska O., et al. (2005) Anticancer Res., 25, 383-389].
Method: Cultivated human tumour cells of the ovarian cell line A2780 and its doxorubicin-resistant pair, A2780/ADR and the uterine cell line MES-SA and its doxorubicin-resistant pair, MES-SA/DX5 were seeded at 3000 cells per well in Nunc 96-well tissue culture plates, 100 μl per well in DMEM media containing 10% foetal calf serum and penicillin/streptomycin. […] The plates were then read at 544/595 nm.
The amount of Alamar Blue reagent reacted represents the metabolic activity of the cells. […] The values were calculated from the average of three individual measurements with blank correction (medium-only control).
The assay was performed on the Biomek FxP, automation platform from Beckman Coulter. The plates were read on the Paradigm plate reader supplied by Beckman Coulter. Asymmetry ratios were calculated as the IC50 value of the compound in the drug resistant cells divided by the IC50 value in the parental cells. […]

[1] = Pharmacokinetics in fasted conscious CD-1 mice (iv and oral); type: in vivo; conditions: compared to compounds A-G
Method: Preliminary investigations of the pharmacokinetics of selected compounds were carried out in fasted conscious CD-1 mice (25-30 g). Compounds were dosed as 1 mg/kg by intravenous administration or 5-10 mg/kg by oral route. Twenty one male mice per administration route (n=3 mice per time point) received dose solution by single bolus injection in the tail vein or by oral gavage. Blood samples were collected by cardiac puncture at 5, 15, 30, 60, 120, 240 and 360 min following iv administration and at 30, 60, 120, 240, 360, 480 and 1440 min following oral administration. Blood samples were collected into tubes containing the anti-coagulant lithium heparin, mixed and placed promptly on crushed ice. Plasma was derived from whole blood by centrifugation, frozen and stored at −80° C. prior to analysis. Plasma concentrations were determined by liquid chromatography-tandem mass spectrometry in electrospray positive mode (ESI LC/MS/MS) using calibration curves prepared in the appropriate matrix. The lower level of quantification (LLOQ) in all cases was ca. 5 ng/mL. Plasma concentration-time data was processed using the computer program WinNonLin version 5.2 from which areas under the plasma concentration-time curve (AUCall) were calculated by non-compartmental analysis using Model 201 (IV-bolus Input) or Model 200 (Extravascular Input).
FIG. 1 plots the area under the curve (AUC) for plasma concentration vs time for each compound tested. The dosing vehicle across these experiments remained constant (intravenous=citrate buffer pH 3, 1 mL/kg; oral=DMA/PEG400/10 mM Tartrate buffer, pH 4 (1:3:6), 5 ml/kg). FIG. 2 represents the same data in the form of oral bioavailability (% F) for each compound.

Chain of AA (aurora kinase A) (O14965 whole entry, species assumed): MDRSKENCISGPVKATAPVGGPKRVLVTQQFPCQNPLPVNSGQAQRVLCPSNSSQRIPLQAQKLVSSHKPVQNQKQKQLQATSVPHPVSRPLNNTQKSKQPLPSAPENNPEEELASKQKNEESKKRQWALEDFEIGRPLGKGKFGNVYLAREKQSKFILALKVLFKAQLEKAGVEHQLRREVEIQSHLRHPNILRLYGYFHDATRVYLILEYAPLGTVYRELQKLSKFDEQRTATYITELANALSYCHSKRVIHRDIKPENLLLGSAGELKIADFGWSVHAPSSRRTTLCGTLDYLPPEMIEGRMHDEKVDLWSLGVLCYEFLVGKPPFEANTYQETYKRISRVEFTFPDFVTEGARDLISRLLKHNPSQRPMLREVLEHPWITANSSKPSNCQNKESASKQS

IC50 (AA (aurora kinase A))	oral bioavailability (% F) [1]	systemic exposure (AUC of plasma concentration vs time) ([1]; iv 1 mg/kg and oral 5-10 mg/kg)	SMILES	cellular efflux (MDR/parental cell asymmetry) (A2780/ADR cells)
< 1 µM			CN1C(=O)CCN(C2CCCC2)c2nc(Nc3cccc4cc[nH]c34)ncc21 [Compound 98, 9-Cyclopentyl-2-(1H-indol-7-ylamino)-5-methyl-5,7,8,9-tetra-hydro-pyrimido[4,5-b] [1,4]diazepin-6-one]	
	markedly superior	markedly superior	COc1cc(C(=O)N[C@H]2CC[C@H](N3CCN(CC4CC4)CC3)CC2)ccc1Nc1ncc2c(n1)N(C1CCCC1)CC1(CC1)C(=O)N2C [Compound 371, 4-(9′-cyclopentyl-5′-methyl-6′-oxo-5′,6′,8′,9′-tetrahydrospiro[cyclopropane-1,7′-pyrimido[4,5-b][1,4]diazepine]-2′-ylamino)-N-((trans)-4-(4-(cyclopropylmethyl)piperazin-1-yl)cyclohexyl)-3-methoxybenzamide]	low cellular efflux
< 10 µM			CN1C(=O)CCN2CCC(=O)Nc3cccc(c3)Nc3ncc1c2n3 [Compound 282]	
